# Data: publication PMC3673949, “Small Molecule R1498 as a Well-Tolerated and Orally Active Kinase Inhibitor for Hepatocellular Carcinoma and Gastric Cancer Treatment via Targeting Angiogenesis and Mitosis Pathways” (PLoS ONE, 2013)
# Like-named read-outs stand apart in the source and are kept apart here.
# How the values were obtained:
# [1] = test system: colorectal cancer, breast cancer, melanoma, and leukemia xenografts; details: 150∼225 mg/kg once daily per oral; cited from earlier work
# [2] = test system: CNE-2 xenograft; details: CNE-2, 100 mg/kg, every 10 days, intraperitoneal injection; for Final TGI%: day of study termination
# Description: The use and care of experimental animal was approved by Institutional Animal Care and Use Committee, Roche R&D Center (China). Tumor cells were inoculated into the right flank of BALB/C nu/nu female nude mice (5∼6 weeks, 16∼18 g, obtained from Sino-British SIPPR/BK Lab. Animal Ltd, Shanghai, China) at optimal density based on our in-house validation study. After the tumor was established and reached 100∼150 mm^3, the mice were randomized into ten mice per group and received treatment according to the schedule. The tumor growth was recorded three times a week with the measurement of length (L) and width (W) by caliper, and calculated as tumor volume (TV, mm^3) = 0.5*L*W*W (mm). […] The tumor regression of individual mouse was defined - the tumor volume at the end was less than the tumor volume when treatment was initiated.
# [3] = test system: Ret; details: cited from earlier work
# [4] = test system: KIT; details: cited from earlier work
# [5] = test system: SGC-7901 xenograft; assay: Xenograft efficacy study; type: in vivo, BALB/C nu/nu nude mice
# [6] = test system: Raf-1; details: cited from earlier work
# [7] = test system: BEL-7402 xenograft; assay: Xenograft efficacy study; type: in vivo, BALB/C nu/nu nude mice
# [8] = test system: HGC-27 xenograft; assay: Xenograft efficacy study; type: in vivo, BALB/C nu/nu nude mice; details: HGC-27, 25 mg/kg twice a day per oral gavage
# [9] = test system: advanced and metastatic HCC; details: first line therapy; placebo group 7.9 months; cited from earlier work
# [10] = test system: BEL-7404 xenograft; assay: Xenograft efficacy study; type: in vivo, BALB/C nu/nu nude mice; details: BEL-7404, 12.5 mg/kg twice a day per oral gavage
# [11] = test system: BGC-823 xenograft; assay: Xenograft efficacy study; type: in vivo, BALB/C nu/nu nude mice; details: BGC-823, 25 mg/kg twice a day per oral gavage
# [12] = test system: MGC-803 xenograft; assay: Xenograft efficacy study; type: in vivo, BALB/C nu/nu nude mice; details: MGC-803, 25 mg/kg twice a day per oral gavage
# [13] = test system: HCCLM3 xenograft; assay: Xenograft efficacy study; type: in vivo, BALB/C nu/nu nude mice; details: HCCLM3, 12.5 mg/kg twice a day per oral gavage
# [14] = day of study termination (Table S2)
smiles,measurement,setting,value
Cc1cc(Nc2cc(N3CCN(C)CC3)nc(/C=C/c3ccccc3)n2)n[nH]1 [ENMD-2076],TGI%,[1],~90%
"O=P1(N(CCCl)CCCl)NCCCO1 (centres unmarked) [Cyclophosphamide, cyclophosphamide]",Final TGI%,[2],58%
same,Final TGI%,[2]; listed as cyclophosphamide,60%
same,Body weight changes%,[2]; before vs after treatment,-2.1%
same,Tumor Regression,[2]; mice with regression/group,0/10
CNC(=O)c1cc(Oc2ccc(NC(=O)Nc3ccc(Cl)c(C(F)(F)F)c3)c(F)c2)ccn1 [regorafenib],IC50,[3],1.5 nM
same,IC50,[4],7 nM
"CNC(=O)c1cc(Oc2ccc(NC(=O)Nc3ccc(Cl)c(C(F)(F)F)c3)cc2)ccn1 [Sorafenib, sorafenib, reference compound]",Final TGI%,"[5]; SGC-7901, 25 mg/kg twice a day per oral gavage, day of study termination (Table S2)",95%
same,Body weight changes%,"[5]; SGC-7901, 25 mg/kg twice a day per oral gavage, before vs after treatment",-18%
same,Tumor Regression,"[5]; SGC-7901, 25 mg/kg twice a day per oral gavage, mice with regression/group",2/10
same,percentage of body weight loss,"[5]; SGC-7901 model, 25 mg/kg twice daily per oral, termination day",exceeded 15%
same,Final TGI%,"[7]; BEL-7402, 25 mg/kg twice a day per oral gavage, day of study termination",83%
same,Body weight changes%,"[7]; BEL-7402, 25 mg/kg twice a day per oral gavage, before vs after treatment",-16%
same,Tumor Regression,"[7]; BEL-7402, 25 mg/kg twice a day per oral gavage, mice with regression/group",1/10
same,percentage of body weight loss,"[7]; BEL-7402 model, 25 mg/kg twice daily per oral, termination day",exceeded 15%
same,Final TGI%,[8]; day of study termination,83%
same,Body weight changes%,[8]; before vs after treatment,-5.5%
same,Tumor Regression,[8]; mice with regression/group,0/10
same,median survival time,[9],10.7 months
same,Final TGI%,[10]; [14],75%
same,Body weight changes%,[10]; before vs after treatment,-4.2%
same,Tumor Regression,[10]; mice with regression/group,0/10
same,Final TGI%,[11]; [14],82%
same,Body weight changes%,[11]; before vs after treatment,-3.5%
same,Tumor Regression,[11]; mice with regression/group,0/10
same,Final TGI%,[12]; day of study termination,92%
same,Body weight changes%,[12]; before vs after treatment,-2.4%
same,Tumor Regression,[12]; mice with regression/group,2/10
same,Final TGI%,[13]; day of study termination,71%
same,Body weight changes%,[13]; before vs after treatment,4.4%
same,Tumor Regression,[13]; mice with regression/group,0/10
